Results reported in US20100136541A1, “IDENTIFICATION AND VERIFICATION OF METHYLATION MARKER SEQUENCES” (Siemens Healthcare Diagnostics Inc., priority 2003, published 2010).

System: CA4 CpG sites
Experiment: Bisulfite sequencing of CpG sites, cell lines treated vs. untreated
Assay type: cell-based, human
Set-up: unit not given here
Description: Samples: Paired tumor and adjacent normal tissues from twelve colorectal cancer patients were collected under institutional review board (IRB) approval with patient consent. Tissues were flash frozen in LN2 and stored at −80° C. prior to DNA extraction. All tissues were blinded. Cell lines: A panel of five colorectal cancer cell lines was used. Cells were grown to ˜50% confluence in the appropriate culture medium prior to treatment with 5-aza-2′-deoxycytidine. Optimal concentrations and incubation times (Table 4) were determined by assaying for reduction of p16 promoter methylation using MSP. Cells were harvested, pelleted by centrifugation, and washed twice in Hanks buffered saline solution. Cell pellets were stored at −80° C. Control cells were maintained simultaneously without 5-aza-2′-deoxycytidine treatment. DNA extraction: DNA was purified from tissues and cell lines using the QIAGEN DNeasy® Tissue Kit. Approximately 25-35 mg of each tissue was pulverized under liquid nitrogen before extraction. Elution volume for tissues was 2004. A final volume of […] of cell line DNA was extracted from 15 to 254 of each packed cell pellet (between 10^6-10^7 cells). Purified DNA was stored at −20° C. Bisulfite modification: Modification was performed according to the Frommer method (See Frommer M, et al., PNAS, 89: 1827-1831 (1992).) One μg genomic DNA was diluted into 50 μl with distilled H2O, 5.5 μl of 2M NaOH was added, and the mixture incubated at 37° C. for 10 minutes (to create single stranded DNA). Thirty μl of freshly prepared 10 mM hydroquinone (Sigma) was added to each tube. Five hundred twenty μl of freshly prepared 3M sodium bisulfite (Sigma S-8890), pH 5.0 was then added. Reagents were thoroughly mixed and then covered with mineral oil and incubated at 50° C. for 16 hours. After removing the oil, 1 ml of Wizard DNA Cleanup Resin (Promega A7280) was added to each tube prior to applying the mixture to miniprep column in the DNA Wizard Cleanup kit. The column was washed with 2 ml of 80% isopropanol, and eluted with 50 μl of heated water (60-70° C.). 5.5 μl of 3 M NaOH to was added to each tube, and incubated at room temperature for 5 minutes. Then 1 μl glycogen was added as carrier, 33 μl of 10 M NH4Ac, and 3 volumes of ethanol for DNA precipitation. The pellet was spun down and washed with 70% ethanol, dried and resuspended in 20 μl water. In some instances, the EZ DNA Methylation Kit (Zymo Research) which uses a simplified version of the Frommer method was used. In these cases, 1 μg of genomic DNA was denatured in 0.3M NaOH for 15 minutes at 37° C. followed by incubation at 50° C. for 16 hours in 0.5 mM hydroquinone and a saturated solution of sodium bisulfite at pH 5. Modified DNA was bound to the Zymo column membrane, then desulfonated with 0.3M NaOH for 15 minutes at room temperature. DNA was washed and resuspended with 50 μL 10 mM Tris-HCl-0.1 mM EDTA, pH 7.5 and stored at −20° C. The bisulfite reaction results in conversion of an unmethylated cytosine to uracil. Methylated cytosine remains unchanged after the bisulfite reaction. The resulting bisulfite modified DNA is single stranded. PCR amplification for sequencing: Primers were designed to amplify both methylated and unmethylated fragments of DNA (Table 5). Five μL of modified DNA ( 1/10 of modification reaction) was amplified first in a 254, reaction volume containing 10 mM Tris-HCl pH8.3, 50 mM KCl, 1.5 mM to 2 mM MgCl2, (Applied Biosystems), 0.25 mM each dNTP, 0.5 unit AmpliTaq (Applied Biosystems), and sequencing primers (each at 200 nM). Cycling conditions were 10 minutes at 95° C., 40 cycles of 30 seconds at 95° C., 30 seconds at 54-62° C., 30 seconds at 72° C., subsequently followed by extension for 5 minutes at 72° C.
Reaction products were purified either by the shrimp-alkaline phosphatase-Exol standard method or on the Qiagen Qiaquick PCR clean-up column and eluted in 30 μL 10 mM Tris-HCl, pH8.5. […]

Nc1ncn([C@H]2C[C@H](O)[C@@H](CO)O2)c(=O)n1 [5-aza-2′-deoxycytidine]
CA4 sequencing result (methylation) at CpG site #6 (HT-29 treated): 47 | CA4 sequencing result (methylation) at CpG site #35 (HT-29 treated): 96 | CA4 sequencing result (methylation) at CpG site #43 (HT-29 treated): 77 | CA4 sequencing result (methylation) at CpG site #52 (HT-29 treated): 92 | CA4 sequencing result (methylation) at CpG site #104 (HT-29 treated): 50 | CA4 sequencing result (methylation) at CpG site #120 (HT-29 treated): 67 | CA4 sequencing result (methylation) at CpG site #127 (HT-29 treated): 74 | CA4 sequencing result (methylation) at CpG site #129 (HT-29 treated): 87 | CA4 sequencing result (methylation) at CpG site #140 (HT-29 treated): 84 | CA4 sequencing result (methylation) at CpG site #153 (HT-29 treated): 83 | CA4 sequencing result (methylation) at CpG site #156 (HT-29 treated): 72 | CA4 sequencing result (methylation) at CpG site #158 (HT-29 treated): 87 | CA4 sequencing result (methylation) at CpG site #164 (HT-29 treated): 87 | CA4 sequencing result (methylation) at CpG site #181 (HT-29 treated): 73 | CA4 sequencing result (methylation) at CpG site #190 (HT-29 treated): 68 | CA4 sequencing result (methylation) at CpG site #199 (HT-29 treated): 92 | CA4 sequencing result (methylation) at CpG site #201 (HT-29 treated): 100 | CA4 sequencing result (methylation) at CpG site #204 (HT-29 treated): 94 | CA4 sequencing result (methylation) at CpG site #213 (HT-29 treated): 91 | CA4 sequencing result (methylation) at CpG site #218 (HT-29 treated): 65 | CA4 sequencing result (methylation) at CpG site #220 (HT-29 treated): 79 | CA4 sequencing result (methylation) at CpG site #227 (HT-29 treated): 47 | CA4 sequencing result (methylation) at CpG site #6 (LS123 treated): 75 | CA4 sequencing result (methylation) at CpG site #35 (LS123 treated): 39 | CA4 sequencing result (methylation) at CpG site #43 (LS123 treated): 62 | CA4 sequencing result (methylation) at CpG site #52 (LS123 treated): 69 | CA4 sequencing result (methylation) at CpG site #104 (LS123 treated): 16 | CA4 sequencing result (methylation) at CpG site #120 (LS123 treated): 27 | CA4 sequencing result (methylation) at CpG site #127 (LS123 treated): 70 | CA4 sequencing result (methylation) at CpG site #129 (LS123 treated): 46 | CA4 sequencing result (methylation) at CpG site #140 (LS123 treated): 62 | CA4 sequencing result (methylation) at CpG site #153 (LS123 treated): 43 | CA4 sequencing result (methylation) at CpG site #156 (LS123 treated): 40 | CA4 sequencing result (methylation) at CpG site #158 (LS123 treated): 22 | CA4 sequencing result (methylation) at CpG site #164 (LS123 treated): 62 | CA4 sequencing result (methylation) at CpG site #181 (LS123 treated): 18 | CA4 sequencing result (methylation) at CpG site #190 (LS123 treated): 11 | CA4 sequencing result (methylation) at CpG site #199 (LS123 treated): 17 | CA4 sequencing result (methylation) at CpG site #201 (LS123 treated): 33 | CA4 sequencing result (methylation) at CpG site #204 (LS123 treated): 20 | CA4 sequencing result (methylation) at CpG site #213 (LS123 treated): 29 | CA4 sequencing result (methylation) at CpG site #218 (LS123 treated): 24 | CA4 sequencing result (methylation) at CpG site #220 (LS123 treated): 20 | CA4 sequencing result (methylation) at CpG site #227 (LS123 treated): 11 | CA4 sequencing result (methylation) at CpG site #6 (LS174T treated): 93 | CA4 sequencing result (methylation) at CpG site #35 (LS174T treated): 35 | CA4 sequencing result (methylation) at CpG site #43 (LS174T treated): 39 | CA4 sequencing result (methylation) at CpG site #52 (LS174T treated): 40 | CA4 sequencing result (methylation) at CpG site #104 (LS174T treated): 18 | CA4 sequencing result (methylation) at CpG site #120 (LS174T treated): 22 | CA4 sequencing result (methylation) at CpG site #127 (LS174T treated): 19 | CA4 sequencing result (methylation) at CpG site #129 (LS174T treated): 62 | CA4 sequencing result (methylation) at CpG site #140 (LS174T treated): 28 | CA4 sequencing result (methylation) at CpG site #153 (LS174T treated): 23 | CA4 sequencing result (methylation) at CpG site #156 (LS174T treated): 32 | CA4 sequencing result (methylation) at CpG site #158 (LS174T treated): 10 | CA4 sequencing result (methylation) at CpG site #164 (LS174T treated): 41 | CA4 sequencing result (methylation) at CpG site #181 (LS174T treated): 22 | CA4 sequencing result (methylation) at CpG site #190 (LS174T treated): 61 | CA4 sequencing result (methylation) at CpG site #199 (LS174T treated): 10 | CA4 sequencing result (methylation) at CpG site #201 (LS174T treated): 67 | CA4 sequencing result (methylation) at CpG site #204 (LS174T treated): 3 | CA4 sequencing result (methylation) at CpG site #213 (LS174T treated): 56 | CA4 sequencing result (methylation) at CpG site #218 (LS174T treated): 64 | CA4 sequencing result (methylation) at CpG site #220 (LS174T treated): 45 | CA4 sequencing result (methylation) at CpG site #227 (LS174T treated): 27 | CA4 sequencing result (methylation) at CpG site #6 (SW480 treated): 70 | CA4 sequencing result (methylation) at CpG site #35 (SW480 treated): 61 | CA4 sequencing result (methylation) at CpG site #43 (SW480 treated): 57 | CA4 sequencing result (methylation) at CpG site #52 (SW480 treated): 73 | CA4 sequencing result (methylation) at CpG site #104 (SW480 treated): 13 | CA4 sequencing result (methylation) at CpG site #120 (SW480 treated): 52 | CA4 sequencing result (methylation) at CpG site #127 (SW480 treated): 44 | CA4 sequencing result (methylation) at CpG site #129 (SW480 treated): 18 | CA4 sequencing result (methylation) at CpG site #140 (SW480 treated): 14 | CA4 sequencing result (methylation) at CpG site #153 (SW480 treated): 17 | CA4 sequencing result (methylation) at CpG site #156 (SW480 treated): 53 | CA4 sequencing result (methylation) at CpG site #158 (SW480 treated): 7 | CA4 sequencing result (methylation) at CpG site #164 (SW480 treated): 66 | CA4 sequencing result (methylation) at CpG site #181 (SW480 treated): 27 | CA4 sequencing result (methylation) at CpG site #190 (SW480 treated): 57 | CA4 sequencing result (methylation) at CpG site #199 (SW480 treated): 28 | CA4 sequencing result (methylation) at CpG site #201 (SW480 treated): 56 | CA4 sequencing result (methylation) at CpG site #204 (SW480 treated): 27 | CA4 sequencing result (methylation) at CpG site #213 (SW480 treated): 51 | CA4 sequencing result (methylation) at CpG site #218 (SW480 treated): 35 | CA4 sequencing result (methylation) at CpG site #220 (SW480 treated): 32 | CA4 sequencing result (methylation) at CpG site #227 (SW480 treated): 23 | CA4 sequencing result (methylation) at CpG site #6 (SW620 treated): 64 | CA4 sequencing result (methylation) at CpG site #35 (SW620 treated): 89 | CA4 sequencing result (methylation) at CpG site #43 (SW620 treated): 81 | CA4 sequencing result (methylation) at CpG site #52 (SW620 treated): 77 | CA4 sequencing result (methylation) at CpG site #104 (SW620 treated): 33 | CA4 sequencing result (methylation) at CpG site #120 (SW620 treated): 74 | CA4 sequencing result (methylation) at CpG site #127 (SW620 treated): 67 | CA4 sequencing result (methylation) at CpG site #129 (SW620 treated): 80 | CA4 sequencing result (methylation) at CpG site #140 (SW620 treated): 78 | CA4 sequencing result (methylation) at CpG site #153 (SW620 treated): 60 | CA4 sequencing result (methylation) at CpG site #156 (SW620 treated): 69 | CA4 sequencing result (methylation) at CpG site #158 (SW620 treated): 73 | CA4 sequencing result (methylation) at CpG site #164 (SW620 treated): 92 | CA4 sequencing result (methylation) at CpG site #181 (SW620 treated): 43 | CA4 sequencing result (methylation) at CpG site #190 (SW620 treated): 46 | CA4 sequencing result (methylation) at CpG site #199 (SW620 treated): 10 | CA4 sequencing result (methylation) at CpG site #201 (SW620 treated): 96 | CA4 sequencing result (methylation) at CpG site #204 (SW620 treated): 100 | CA4 sequencing result (methylation) at CpG site #213 (SW620 treated): 96 | CA4 sequencing result (methylation) at CpG site #218 (SW620 treated): 91 | CA4 sequencing result (methylation) at CpG site #220 (SW620 treated): 93 | CA4 sequencing result (methylation) at CpG site #227 (SW620 treated): 37
